# From patent publication US20040097408A1, “Compounds regulating cell proliferation and differentiation” (priority 2001, published 2004)
# Key:
# [1] = level of F16 in serum of mice by fluorescence; assay type: in vivo, mouse; conditions: 12.5 or 25 mg/kg intraperitoneally
# Description: To determine the levels of F16 present in the blood of mice after injection of F16, two mice were injected intraperitoneally with 25 mg/kg F16 and two mice were injected intraperitoneally with 12.5 mg/kg of F16. […] 40-50 μL of blood was obtained from the tail vein of the mice and placed into tubes incubated in ice and containing Heparin to a final concentration of 20U/mL of blood. Samples were centrifuged at 6,000 rpm for 3 minutes in the cold room. Serum was transfered to a clean tube and stored at −70° C. until further processing. 2 μL of serum samples were spotted onto Whatman paper, alongside with dilutions of F16 as a standard. Since F16 is a fluorescent compound (see below), the presence of F16 was deteremined by measuring its fluorescence emission using the Storm 860 (Molecular Dynamics). The concentration of F16 in serum samples was estimated by visual comparison to the intensity of the standard.
# [2] = system: isolated mouse liver mitochondria; assay: mitochondrial membrane potential by F16 fluorescence; assay type: biochemical; conditions: 1 μM and 50 μM F16
# Description: Mitochondria were isolated from liver of Balb/c7 mice by standard differential centrifugation, and resuspended in isolation buffer (0.2 M sucrose, 10 mM Tris-MOPS pH 7.4, 0.1 mM EGTA-Tris, 0.1% delipidated BSA) (Costantini et al. (1995) Toxicology (99) 77-88). Protein concentration was determined by Bradford assay. For swelling determination, changes in side scatter at 545±2.5 nm of a 0.5 mg/ml suspension of mitochondria in experimental buffer (125 mM KCl, 10 mM Tris-MOPS pH 7.4, 1 mM Pi, 5 mM glutamate, 2.5 mM malate, 10 μM EGTA-Tris, pH 7.4) were monitored by using LS-50B spectrofluorimeter. To monitor changes in mitochondrial membrane potential, the intrinsic potentiometric properties of F16 were used. Mitochondria (0.5 mg/ml) were incubated in experimental buffer with the indicated concentrations of F16 and changes in F16 fluorescence intensity were measured, using a LS-50B spectrofluorimeter at 25° C., with excitation and emission wavelengths set at 415±2.5 nm and 520±5 nm, respectively. All reactions were performed at 25° C. and the instrument was equipped with magnetic stirring.
# The fluorescent properties of F16 were used for this purpose. It was determined whether the fluorescence of a 1 μM solution of F16 changed in response to mitochondrial energization and depolarization. […] Preincubation of mitochondria with the PTP inhibitor CsA only partially blunted this effect.
# [3] = system: F16-resistant normal mammary epithelial and human cancer cell lines; assay: F16 accumulation in the presence of MDR-1 and MRP1 inhibitors; assay type: cell-based; conditions: 3 μM F16 with 50 μM verapamil/1 mM probenecid
# Source text: To evaluate the effect of multi-drug resistance pumps on the F16-insensitive cells, inhibitors of MDR-1 and MRP1 were utilized (Lizardet al. (1994) Cell Biol Toxicol (10) 399-406).
# [4] = total body weight of mice during treatment; assay type: in vivo, mouse; conditions: relative to weight at the beginning of the experiment; 20 mg/kg twice a day
# Source text: The total weight of the mice was also monitored every other day during the course of the treatment with F16.
# A6 cells = assay: apoptosis time course (DNA fragmentation, propidium iodide staining, cytochrome c release); assay type: cell-based, mouse; conditions: 3 μM F16, 48, 60 and 72 hr, FIG. 6
# Description: The DNA fragmentation assay was conducted by isolating DNA from 1×10^6 of untreated or F16 treated for 48, 60 and 72 hr using Suicide-Track TM (Oncogene) according to manufacturer's procedure. Samples were resolved by agarose gel electrophoresis and ethidium-bromide stained. Cytochrome c release was measured by immunofluorescence as follows. Untreated or F16-treated A6 cells were washed and fixed with ice-cold 3.7% paraformaldehyde at RT, permeabilized for with ice-cold 0.01% (v/v) Nonidet P-40 for 20 min and incubated with 0.5% BSA/PB. Immunodetection was performed with monoclonal anti-cytochrome c antibody (PharMingen) and secondary anti-mouse-TRITC conjugated antibody. Cells were photographed under Axioskop using a Spot Camera (Diagnostic Instruments).
# [5] = system: EpH4-EV and EpH4-A6 cells; assay: superoxide levels by dihydroethidium flow cytometry; assay type: cell-based, mouse; conditions: 3 μM F16, FIG. 11
# Source text: Besides ATP synthesis, the mitochondria plays different roles in cell physiology, among them control of the redox state of cells. Changes in the level of superoxide anion as an indicator of alterations in reactive oxygen intermediates generation by mitochondria of cells treated with F16 was examined by flow cytometry. Changes in the levels of intracellular oxidants were investigated using the fluorescent probe dihydroethidium (DHE) (Molecular Probes). Superoxide anion can oxidate DHE to ethidium bromide (EtBr) which binds to DNA. […] EpH4-EV and EpH4-A6 cells were grown in the absence or in the presence of 3 μM F16 for 15, 24, 48 and 72 hr. cells were resuspended and diluted to 10^6 cells/mL. DHE was added to the cell suspension to a final 2 μM in each case. Cells were incubated at 37° C. for 15 min and immediately analysed using flow cytometry.
smiles,measurement,setting,value
C[n+]1ccc(/C=C/c2c[nH]c3ccccc23)cc1.[I-] [F16],F16 in blood 20 hours after the injection,[1],not detected
same,time of the maximum level of F16 in the blood,[1]; FIG. 7,1 to 3 h
same,level of F16 in the blood at 7 hours after the injection,[1]; compared to standard,nanomolar range
same,maximum level of F16 in the blood,[1]; compared to standard,micromolar range
same,mitochondrial depolarization,[2],directly causes mitochondrial depolarization
same,F16 mitochondrial accumulation with MDR-1/MRP1 inhibitors,[3],did not result in F16 mitochondrial accumulation
same,average total body weight loss,[4],3.3%
same,cell death on prolonged incubation,A6 cells,increased cell death
same,superoxide level (ethidium/DNA fluorescence),[5],increase in the ethidium/DNA fluorescence
